Earlier results in patent US20070292407A1, “Methods of treatment for meconium aspiration syndrome” (The Board of Trustees Operating Michigan State University, priority 2005, published 2007).

Settings: in vitro; Burke et al., J Pediatr Surg 2002

Compound: CC(=O)N[C@@H](CS)C(=O)O [N-Acetylcysteine, N-acetyl-L-cysteine]
- reduction of meconium viscosity: significant reduction of meconium viscosity
